Biological target: recombinant human AMCase (Homo sapiens (Human), UniProt Q9BZP6)
Test: Human AMCase Activity Assay
Assay type: biochemical
Conditions: citrate buffer pH 5.2, 37° C., 60 minutes, read-out: Activity on hAMCase, IC50

recombinant human AMCase, sequence (Q9BZP6 22-476): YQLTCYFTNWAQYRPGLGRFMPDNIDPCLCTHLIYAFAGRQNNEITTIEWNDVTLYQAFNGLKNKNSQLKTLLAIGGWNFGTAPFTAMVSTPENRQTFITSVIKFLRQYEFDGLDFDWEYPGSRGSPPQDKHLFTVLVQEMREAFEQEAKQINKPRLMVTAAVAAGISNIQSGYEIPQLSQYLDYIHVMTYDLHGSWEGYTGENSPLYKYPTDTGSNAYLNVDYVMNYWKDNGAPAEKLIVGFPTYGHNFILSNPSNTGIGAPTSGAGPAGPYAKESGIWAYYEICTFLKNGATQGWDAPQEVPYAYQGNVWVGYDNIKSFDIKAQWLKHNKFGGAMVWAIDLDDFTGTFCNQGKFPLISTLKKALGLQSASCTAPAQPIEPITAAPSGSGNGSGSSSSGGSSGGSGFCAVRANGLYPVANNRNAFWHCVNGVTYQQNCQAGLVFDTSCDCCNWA

Row | Structure (SMILES) | IC50
1 | CN1C[C@H](Cc2ccc(Cl)cc2)N(C2CCN(c3nnc(N)[nH]3)CC2)C[C@@H]1Cc1ccc(Cl)cc1 [Example 31, 5-(4-((2S,5S)-2,5-bis(4-chlorobenzyl)-4-methylpiperazin-1-yl)piperidin-1-yl)-4H-1,2,4-triazol-3-amine] | < 0.1 µM
2 | CN1C[C@H](Cc2ccc(Cl)cc2)N(C2CCN(c3nnc(N)[nH]3)CC2)C[C@@H]1CC1CCCCC1 [Example 32, 5-(4-((2 S, 5S)-2-(4-chlorobenzyl)-5-(cyclohexylmethyl)-4-methylpiperazin-1-yl)piperidin-1-yl)-4H-1,2,4-triazol-3-amine] | < 0.1 µM
3 | CC(C)C[C@H]1CN(C2CCN(c3nnc(N)[nH]3)CC2)[C@@H](Cc2ccc(Cl)cc2)CN1C [Example 33, 5-(4-((2S,5S)-2-(4-chlorobenzyl)-5-isobutyl-4-methylpiperazin-1-yl)piperidin-1-yl)-4H-1,2,4-triazol-3-amine] | < 0.1 µM

Biological target: recombinant human CHIT1 (Homo sapiens (Human), UniProt Q13231)
Sequence (Q13231 22-466): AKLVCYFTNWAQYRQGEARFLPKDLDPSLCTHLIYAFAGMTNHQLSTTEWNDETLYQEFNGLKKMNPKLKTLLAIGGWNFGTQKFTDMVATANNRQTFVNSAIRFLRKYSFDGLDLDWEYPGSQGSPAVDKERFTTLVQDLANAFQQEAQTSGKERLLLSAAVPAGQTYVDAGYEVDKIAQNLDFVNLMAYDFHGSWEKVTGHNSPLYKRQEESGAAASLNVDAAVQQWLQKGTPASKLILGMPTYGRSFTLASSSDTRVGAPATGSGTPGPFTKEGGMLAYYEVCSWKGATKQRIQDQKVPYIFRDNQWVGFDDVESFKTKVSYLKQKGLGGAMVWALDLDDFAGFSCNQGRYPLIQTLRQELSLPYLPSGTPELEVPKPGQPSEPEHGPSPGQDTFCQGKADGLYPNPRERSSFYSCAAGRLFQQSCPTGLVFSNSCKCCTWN
Test: Human CHIT1 Activity Assay
Assay type: biochemical
Conditions: recombinant human CHIT1, citrate buffer pH 5.2, 37° C., 60 minutes; read-out: Activity on hCHIT1, IC50

Row | Structure (SMILES) | IC50
4 | COC(C)(C)[C@H]1CN(C2CCN(c3nnc(N)[nH]3)CC2)[C@@H](Cc2ccc(Cl)cc2)CO1 [Example 14, 5-(4-((2R,5S)-5-(4-chlorobenzyl)-2-(2-methoxypropan-2-yl)morpholino)piperidin-1-yl)-4H-1,2,4-triazol-3-amine] | < 0.1 µM
5 | C[C@H]1CN(C2CCN(c3nnc(N)[nH]3)CC2)[C@@H](Cc2ccc(Cl)cc2)CN1S(C)(=O)=O [Example 37, 5-(4-((2S,5S)-2-(4-chlorobenzyl)-5-methyl-4-(methylsulfonyl)piperazin-1-yl)piperidin-1-yl)-4H-1,2,4-triazol-3-amine] | 10 to 100 µM
6 | COC(=O)N1C[C@H](Cc2ccc(Cl)cc2)N(C2CCN(c3nnc(N)[nH]3)CC2)C[C@@H]1C [Example 39, methyl (2S,5S)-4-(1-(5-amino-4H-1,2,4-triazol-3-yl)piperidin-4-yl)-5-(4-chlorobenzyl)-2-methylpiperazine-1-carboxylate] | 10 to 100 µM
7 | COC(=O)CN1C[C@H](Cc2ccc(Cl)cc2)N(C2CCN(c3nnc(N)[nH]3)CC2)C[C@@H]1C [Example 40, methyl 2-((2S,5S)-4-(1-(5-amino-4H-1,2,4-triazol-3-yl)piperidin-4-yl)-5-(4-chlorobenzyl)-2-methylpiperazin-1-yl)acetate] | 0.1 to 1 µM
8 | C[C@H]1CN(C2CCN(c3nnc(N)[nH]3)CC2)[C@@H](Cc2ccc(Cl)cc2)C(C)(C)O1 [Example 53, 5-(4-((3S,6S)-3-(4-chlorobenzyl)-2,2,6-trimethylmorpholino)piperidin-1-yl)-4H-1,2,4-triazol-3-amine] | 10 to 100 µM

Reference: patent US10538508B2, “Substituted amino triazoles useful as human chitinase inhibitors” (OncoArendi Therapeutics S.A., priority 2015, dated 2020)
